Measured values published in patent USRE49850E1, “N-(pyridin-2-yl)-4-(thiazol-5-yl)pyrimidin-2-amine derivatives as therapeutic compounds” (AUCENTRA THERAPEUTICS PTY LTD, priority 2015, dated 2024).
Read-outs that look alike come from different tables or passages of the source.

Legend:
[1] = system: MDA-MB-453; experiment: Cell viability assay (MTT, solid tumour cell line) MDA-MB-453; type: cell-based, human
Source text: (§1) Compounds from Example 1 were subjected to a standard MTT (3-(4,5-dimethylthiazol-2-yl)-2,5-diphenyltetrazolium bromide) and resazurin assays on solid tumour cell lines and leukemia cell lines, respectively, as previously reported (Wang S et al., J Med Chem 47:1662-1675, 2004 and Diab S. et al. CheMedChem 9:962-972, 2014).

[2] = molecular target: CDK7H (Homo sapiens, UniProt P50613); experiment: Kinase assay CDK7H (radiometric profiling service); type: biochemical; settings: for Ki: apparent Ki calculated from Km (ATP) and IC50, read-out: CDK inhibition Ki CDK7H
Chain of CDK7H (P50613 whole entry): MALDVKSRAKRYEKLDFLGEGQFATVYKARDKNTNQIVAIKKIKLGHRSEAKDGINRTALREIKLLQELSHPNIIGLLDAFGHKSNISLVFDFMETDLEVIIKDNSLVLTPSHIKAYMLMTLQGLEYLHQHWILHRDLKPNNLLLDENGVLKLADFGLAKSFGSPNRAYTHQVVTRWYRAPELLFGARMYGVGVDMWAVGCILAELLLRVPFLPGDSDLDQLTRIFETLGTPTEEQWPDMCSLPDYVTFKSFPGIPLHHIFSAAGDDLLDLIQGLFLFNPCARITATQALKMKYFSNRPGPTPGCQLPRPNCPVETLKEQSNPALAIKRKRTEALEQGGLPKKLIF
Chain of CDK7H (P51946 whole entry partner): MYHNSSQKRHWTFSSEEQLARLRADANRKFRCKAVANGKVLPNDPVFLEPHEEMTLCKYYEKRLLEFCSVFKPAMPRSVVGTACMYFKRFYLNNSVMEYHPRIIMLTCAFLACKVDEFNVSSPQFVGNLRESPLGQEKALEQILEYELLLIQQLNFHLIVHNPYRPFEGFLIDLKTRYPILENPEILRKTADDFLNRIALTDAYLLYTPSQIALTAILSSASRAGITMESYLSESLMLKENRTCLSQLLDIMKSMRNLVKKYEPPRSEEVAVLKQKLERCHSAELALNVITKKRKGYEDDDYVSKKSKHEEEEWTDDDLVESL
Chain of CDK7H (P51948 whole entry partner): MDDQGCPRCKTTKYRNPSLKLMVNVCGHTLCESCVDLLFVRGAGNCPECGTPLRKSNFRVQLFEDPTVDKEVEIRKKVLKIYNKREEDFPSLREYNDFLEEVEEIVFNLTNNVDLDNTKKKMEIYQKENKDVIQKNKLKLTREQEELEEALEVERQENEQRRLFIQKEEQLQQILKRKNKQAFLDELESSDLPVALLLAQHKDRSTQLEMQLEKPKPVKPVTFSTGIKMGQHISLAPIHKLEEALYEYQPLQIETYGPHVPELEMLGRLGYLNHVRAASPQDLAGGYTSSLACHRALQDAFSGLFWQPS
How it was run: (§2)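 Compounds were diluted 1:3 over 10 concentrations (10 μM to 0.5 nM). CDK4/D1 reactions with RB-CTF substrate were started with ATP, run 40 min at 37° C, then quenched and detected by ADP-Glo luminescence. CDK7, CDK2 and CDK1 were tested radiometrically by a service. IC50 was fitted by logistic regression.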

[3] = system: KG-1; experiment: Cell viability assay, leukemia KG-1; type: cell-based; settings: Homo sapiens, 72 h, read-out: Antiproliferative activity GI50 KG-1
Source text: as §1

[4] = molecular target: T1, CDK4D1 (Homo sapiens, UniProt P11802); experiment: Kinase assay CDK4/D1 (radiometric or ADP Glo); type: biochemical; settings: apparent Ki calculated from Km (ATP) and IC50; read-out: CDK inhibition Ki CDK4D1
T1 construct: purchased Eurofins Pharma Discovery or Reaction Biology Corporation (service)
T1 sequence (P11802 whole entry): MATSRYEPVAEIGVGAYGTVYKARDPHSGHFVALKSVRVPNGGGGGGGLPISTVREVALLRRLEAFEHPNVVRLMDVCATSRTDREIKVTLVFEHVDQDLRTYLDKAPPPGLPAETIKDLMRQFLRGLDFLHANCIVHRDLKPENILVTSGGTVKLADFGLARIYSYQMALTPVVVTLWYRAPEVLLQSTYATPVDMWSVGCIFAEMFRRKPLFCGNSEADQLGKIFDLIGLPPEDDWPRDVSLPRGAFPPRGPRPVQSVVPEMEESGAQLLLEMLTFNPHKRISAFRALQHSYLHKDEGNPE
T1 sequence (P24385 whole entry partner): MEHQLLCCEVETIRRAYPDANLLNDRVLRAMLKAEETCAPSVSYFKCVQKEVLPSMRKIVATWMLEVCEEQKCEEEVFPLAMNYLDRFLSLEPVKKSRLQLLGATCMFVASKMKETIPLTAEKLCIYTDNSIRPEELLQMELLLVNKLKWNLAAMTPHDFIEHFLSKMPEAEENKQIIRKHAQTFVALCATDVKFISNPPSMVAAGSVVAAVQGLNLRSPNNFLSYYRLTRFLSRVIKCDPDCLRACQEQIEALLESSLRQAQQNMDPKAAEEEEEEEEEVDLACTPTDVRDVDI
How it was run: as §2

[5] = molecular target: CDK 2A (Homo sapiens, UniProt P24941); experiment: Kinase assay CDK2A (radiometric profiling service); type: biochemical; settings: for Ki: apparent Ki calculated from Km (ATP) and IC50, read-out: CDK inhibition Ki CDK 2A
How it was run: as §2

[6] = molecular target: T2, CDK9T1 (Homo sapiens, UniProt P50750); experiment: Kinase assay CDK9/T1 (radiometric or ADP Glo); type: biochemical; settings: apparent Ki calculated from Km (ATP) and IC50; read-out: CDK inhibition Ki CDK9T1
T2 construct: purchased Eurofins Pharma Discovery or Reaction Biology Corporation (service)
T2 sequence (P50750 whole entry): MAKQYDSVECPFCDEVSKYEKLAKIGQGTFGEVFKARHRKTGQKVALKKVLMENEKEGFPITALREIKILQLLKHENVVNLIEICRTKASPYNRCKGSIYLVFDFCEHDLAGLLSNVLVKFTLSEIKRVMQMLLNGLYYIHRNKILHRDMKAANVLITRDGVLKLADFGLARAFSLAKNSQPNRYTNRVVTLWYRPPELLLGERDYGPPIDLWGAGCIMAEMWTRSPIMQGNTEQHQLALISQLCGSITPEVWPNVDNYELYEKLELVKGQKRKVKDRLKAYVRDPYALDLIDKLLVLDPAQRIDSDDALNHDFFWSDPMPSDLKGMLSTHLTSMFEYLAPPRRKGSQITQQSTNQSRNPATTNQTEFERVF
T2 sequence (O60563 whole entry partner): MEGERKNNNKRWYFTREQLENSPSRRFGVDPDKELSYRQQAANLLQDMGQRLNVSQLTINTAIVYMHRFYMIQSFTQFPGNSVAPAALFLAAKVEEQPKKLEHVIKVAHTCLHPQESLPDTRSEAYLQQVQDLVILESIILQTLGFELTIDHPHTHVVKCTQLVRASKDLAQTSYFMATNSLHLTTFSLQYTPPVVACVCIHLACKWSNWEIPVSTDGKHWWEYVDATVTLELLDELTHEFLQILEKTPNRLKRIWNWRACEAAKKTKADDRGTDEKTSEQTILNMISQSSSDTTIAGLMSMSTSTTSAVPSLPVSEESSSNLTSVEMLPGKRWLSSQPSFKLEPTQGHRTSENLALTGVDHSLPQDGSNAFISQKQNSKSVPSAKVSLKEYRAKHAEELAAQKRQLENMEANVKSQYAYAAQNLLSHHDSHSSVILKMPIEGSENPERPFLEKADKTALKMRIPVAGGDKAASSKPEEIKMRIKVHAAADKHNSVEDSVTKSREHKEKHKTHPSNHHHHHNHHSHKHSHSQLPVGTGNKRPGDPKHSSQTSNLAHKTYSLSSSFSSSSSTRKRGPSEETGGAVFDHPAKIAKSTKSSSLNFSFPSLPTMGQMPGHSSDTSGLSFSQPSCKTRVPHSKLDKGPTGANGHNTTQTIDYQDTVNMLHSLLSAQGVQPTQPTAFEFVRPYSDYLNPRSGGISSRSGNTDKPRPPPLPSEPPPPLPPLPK
How it was run: (§3)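 Radiometric inhibition data for CDKs came from Eurofins or Reaction Biology profiling services; CDK4/D1 was also run in-house by ADP-Glo in […] pH 7.5, 20 mM MgCl2, 0.4 mM DTT, 0.1 mg/ml BSA with RB-CTF substrate, 40 min at 37 °C after ATP start. Ten-point 1:3 dilutions (10 μM–0.5 nM); four-parameter IC50, Ki from IC50 and ATP Km.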

[7] = system: MOLM-13; experiment: Cell viability assay, leukemia MOLM-13; type: cell-based; settings: Homo sapiens, 72 h, read-out: Antiproliferative activity GI50 MOLM-13
Source text: as §1

[8] = molecular target: T3, CDK6D3 (Homo sapiens, UniProt Q00534); experiment: Kinase assay CDK6/D3 (radiometric or ADP Glo); type: biochemical; settings: apparent Ki calculated from Km (ATP) and IC50; read-out: CDK inhibition Ki CDK6D3
T3 construct: purchased Eurofins Pharma Discovery or Reaction Biology Corporation (service)
T3 sequence (Q00534 whole entry): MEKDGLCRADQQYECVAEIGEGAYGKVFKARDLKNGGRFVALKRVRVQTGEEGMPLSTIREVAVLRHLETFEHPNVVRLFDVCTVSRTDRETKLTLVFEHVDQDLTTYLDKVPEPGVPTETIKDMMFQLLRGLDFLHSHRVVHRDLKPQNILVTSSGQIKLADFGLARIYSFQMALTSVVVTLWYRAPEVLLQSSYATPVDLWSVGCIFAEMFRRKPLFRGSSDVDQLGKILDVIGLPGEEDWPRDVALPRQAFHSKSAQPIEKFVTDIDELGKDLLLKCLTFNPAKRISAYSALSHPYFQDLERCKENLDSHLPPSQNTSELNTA
T3 sequence (P30281 whole entry partner): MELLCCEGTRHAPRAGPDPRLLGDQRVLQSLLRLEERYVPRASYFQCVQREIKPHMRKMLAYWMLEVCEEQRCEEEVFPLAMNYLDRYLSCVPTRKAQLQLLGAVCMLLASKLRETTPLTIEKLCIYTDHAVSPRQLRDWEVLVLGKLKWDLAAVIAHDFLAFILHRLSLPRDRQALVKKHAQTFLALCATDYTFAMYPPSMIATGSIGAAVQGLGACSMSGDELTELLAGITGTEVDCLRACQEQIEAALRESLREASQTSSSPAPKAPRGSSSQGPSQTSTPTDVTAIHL
How it was run: as §3

[9] = molecular target: CDK1B (Homo sapiens, UniProt P06493); experiment: Kinase assay CDK1B (radiometric profiling service); type: biochemical; settings: for Ki: apparent Ki calculated from Km (ATP) and IC50, read-out: CDK inhibition Ki CDK1B
Chain of CDK1B (P06493 whole entry): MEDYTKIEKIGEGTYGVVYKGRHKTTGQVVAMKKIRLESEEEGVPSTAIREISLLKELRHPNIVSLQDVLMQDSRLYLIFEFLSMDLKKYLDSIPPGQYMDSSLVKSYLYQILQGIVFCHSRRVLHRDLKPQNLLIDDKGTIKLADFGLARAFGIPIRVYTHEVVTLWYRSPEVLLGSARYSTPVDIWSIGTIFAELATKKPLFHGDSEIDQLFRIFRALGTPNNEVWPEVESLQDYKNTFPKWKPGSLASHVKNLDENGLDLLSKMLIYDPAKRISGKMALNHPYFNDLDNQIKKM
Chain of CDK1B (P14635 whole entry partner): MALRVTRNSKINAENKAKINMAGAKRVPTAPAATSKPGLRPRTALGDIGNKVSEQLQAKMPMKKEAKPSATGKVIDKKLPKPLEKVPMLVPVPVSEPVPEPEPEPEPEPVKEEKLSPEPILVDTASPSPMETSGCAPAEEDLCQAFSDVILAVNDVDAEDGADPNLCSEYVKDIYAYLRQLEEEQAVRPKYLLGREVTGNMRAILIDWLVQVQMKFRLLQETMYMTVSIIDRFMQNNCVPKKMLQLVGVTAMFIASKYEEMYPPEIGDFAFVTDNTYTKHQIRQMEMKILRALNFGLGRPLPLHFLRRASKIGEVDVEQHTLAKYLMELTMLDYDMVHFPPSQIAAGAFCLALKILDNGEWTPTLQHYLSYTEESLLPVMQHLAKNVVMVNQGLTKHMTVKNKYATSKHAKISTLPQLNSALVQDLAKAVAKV
How it was run: as §2

[10] = system: MV4-11; experiment: Cell viability assay (resazurin, leukemia cell line) MV4-11; type: cell-based, human
Source text: as §1

[11] = system: A2780; experiment: Cell viability assay, ovarian A2780; type: cell-based; settings: Homo sapiens, read-out: Antiproliferative activity GI50 A2780
Source text: as §1

[12] = system: D283; experiment: Cell viability assay, medulloblastoma D283; type: cell-based; settings: Homo sapiens, read-out: Antiproliferative activity GI50 D283
Source text: as §1

[13] = system: D458; experiment: Cell viability assay, medulloblastoma D458; type: cell-based; settings: Homo sapiens, 72 h, read-out: Antiproliferative activity GI50 D458
Source text: as §1

[14] = Pharmacokinetics in rat; type: in vivo, Wistar Rat; settings: po; for bioavailability: vs IV dosing, read-out: Oral bioavailability (F %)
Method: (§4) For pharmacokinetic measurements, healthy male adult Balb/C mice (weighing 20-25 g) or Wistar Rat (weighing 250-350 g) were split into weight matched groups of 3 per group. […] Blood samples were collected from animals by jugular vein cannula (rats) or under anaesthesia by cardiac puncture (mice) at time zero and at intervals up to 24 h. Harvested blood was centrifuged at 7000×G for 2 minutes, and the plasma aspirated and frozen at −20° C. until analysis. Quantitative analysis of compound in plasma was carried out using LC-MS/MS methods. Pharmacokinetic data derived using Phoenix WinNonlin 6.4® non-compartmental analysis. Oral bioavailability (% F) was calculated by taking the ratio of dose-normalised AUC values from oral versus parenteral (IV) dosing.

[15] = system: MV4-11 cells; experiment: Cell cycle analysis (PI staining, flow cytometry); type: cell-based, human; settings: MV4-11 cells treated for 24 h, FIG. 1
Method: Cell cycle analysis and apoptosis studies were performed as described previously (Diab S. et al. CheMedChem 9:962-972, 2014; Teo T., et al. Cancer Letters, 357(2):612-623, 2015). Briefly, human acute myeloid leukaemia MV4-11 cells (1×10^5) were seeded and incubated overnight at 37° C. and 5% CO2. Cells were centrifuged at 300×g for 5 min upon treatment with inhibitor. Cell pellets were collected and fixed with 70% ethanol on ice for 15 min, followed by centrifugation at 300×g for 5 min. The collected pellets were incubated with staining solution (50 μg/mL PI, 0.1 mg/mL ribonuclease A, 0.05% Triton X-100) at 37° C. for an hour and analysed with Gallios flow cytometer. 1×10^5 of the remaining cells were then used in an apoptotic assay with Annexin V-FITC Apoptosis Detection Kit. The samples were analysed by FACS within one hour of staining. Data were analysed using Kaluza v1.2.
In an example shown in FIG. 1, MV4-11 cells were treated with compound 60 for 24 hat the concentrations shown.

[16] = Pharmacokinetics in mice; type: in vivo, Balb/C mice; settings: po, 10 mg/kg in mice
Method: as §4

[17] = Homo sapiens, MDA-MB-453, 72 h; read-out: Anti-proliferative activity GI50 MDA-MB-453
[18] = Homo sapiens, MV4-11, 72 h; read-out: Anti-proliferative activity GI50 MV4-11
[19] = male, Wistar, plasma, 20 mg/kg in rat
[20] = male, Wistar, plasma, 40 mg/kg in rat

Row | Structure (SMILES) | GI50 [1, 17] [nM] | Ki [2] [nM] | GI50 [3] [nM] | Ki [4] [nM] | Ki [5] [nM] | Ki [6] [nM] | GI50 [7] [nM] | Ki [8] [nM] | Ki [9] [nM] | GI50 [10, 18] [nM] | GI50 ([11]; A2780, 72 h, Ovarian) [nM] | GI50 ([12]; D283, 72 h, Medulloblastoma) [nM] | GI50 ([13]; Medulloblastoma) [nM] | other results
1 | CCc1nc(C)c(-c2ccnc(Nc3ccc(N4CCN(CC)CC4)cn3)n2)s1 [Compound 9, 4-(2-ethyl-4-methylthiazol-5-yl)-N-(5-(4-ethylpiperazin-1-yl)pyridin-2-yl)pyrimidin-2-amine] | 3320 ± 576 | > 5000 | 47 ± 15 | 10 | 1800 | > 5000 | 293 ± 28 | 1670 | > 5000 | 591 ± 83 |  |  |  | 
2 | CNc1nc(C)c(-c2ccnc(Nc3ccc(N4CCN(C)CC4)cn3)n2)s1 [Compound 29, N,4-dimethyl-5-(2-((5-(4-methylpiperazin-1-yl)pyridin-2-yl)amino)pyrimidin-4-yl)thiazol-2-amine] |  | > 5000 |  | 5 | 650 | 1820 |  | 50 | 3210 |  |  |  |  | GI50 ([1]; Homo sapiens, MDA-MB-453, 72 h, read-out: Anti-proliferative activity GI50 MDA-MB-453): 544 ± 78 nM; GI50 ([11]; A2780, 72 h): 282 ± 58 nM; GI50 ([12]; D283, 72 h): 335 ± 97 nM; GI50 [13]: 326 ± 29 nM; GI50 ([10]; Homo sapiens, MV4-11, 72 h, read-out: Anti-proliferative activity GI50 MV4-11): 297 ± 61 nM
3 | CNc1nc(C)c(-c2nc(Nc3ccc(N4CCN(C(C)=O)CC4)cn3)ncc2C#N)s1 [Compound 34, 2-((5-(4-acetylpiperazin-1-yl)pyridin-2-yl)amino)-4-(4-methyl-2-(methylamino)thiazol-5-yl)pyrimidine-5-carbonitrile] | 813 ± 22 | > 5000 | 112 ± 45 |  | 4470 | > 5000 | 408 ± 25 |  | > 5000 | 174 ± 22 |  |  |  | AUC [14, 19]: 10.2 µM·h; Cmax [14, 19]: 600 nM; half-life [14, 19]: 4.6 h; bioavailability [14, 19]: 39%
4 | Cc1nc(NC2CCCC2)sc1-c1ccnc(Nc2ccc(N3CCOCC3)cn2)n1 [Compound 71, N-cyclopentyl-4-methyl-5-(2-((5-morpholinopyridin-2-yl)amino)pyrimidin-4-yl)thiazol-2-amine] | 3680 ± 285 | > 5000 |  | 5 | 2940 | > 5000 |  | 29 | > 5000 | 335 ± 184 |  |  |  | AUC ([16]; male, Balb/C, mouse, plasma): 5.9 µM·h; half-life ([16]; male, Balb/C, mouse, plasma): 5 h; bioavailability ([16]; male, Balb/C, mouse, plasma, vs IV dosing, read-out: Oral bioavailability (F %)): 100%; Cmax [16]: 1600 nM; AUC [14, 19]: 15.9 µM·h; bioavailability [14, 19]: 27%; Cmax ([14]; 20 mg/kg in rat): 1400 nM; t1/2 ([14]; 20 mg/kg in rat): 2.8 h
5 | Cc1nc(N(C)C2CCCC2)sc1-c1ccnc(Nc2ccc(N3CCN(C)CC3)cn2)n1 [Compound 86, N-cyclopentyl-N,4-dimethyl-5-(2-((5-(4-methylpiperazin-1-yl)pyridin-2-yl)amino)pyrimidin-4-yl)thiazol-2-amine] | 3360 ± 286 | > 5000 |  | 2 | 476 | 1800 |  | 10 | > 5000 | 20 ± 15 | 72 ± 20 | 358 ± 100 | 617 ± 112 | 
6 | Cc1[nH]c(=O)sc1-c1ccnc(Nc2ccc(N3CCN(C)CC3)cn2)n1 [Compound 92, 4-methyl-5-(2-((5-(4-methylpiperazin-1-yl)pyridin-2-yl)amino)pyrimidin-4-yl)thiazol-2(3H)-one] | 3330 ± 864 |  |  | 27 |  | 950 |  | 155 |  | 752 ± 33 |  |  |  | remaining activity at 10 µM ([2]; compound at 10 μM, read-out: % remaining enzymatic activity at 10 μM CDK7H): 24%; remaining activity at 10 µM ([5]; compound at 10 μM, read-out: % remaining enzymatic activity at 10 μM CDK 2A): 61%; remaining activity at 10 µM ([9]; compound at 10 μM, read-out: % remaining enzymatic activity at 10 μM CDK1B): 51%; melting point: 228 to 230 °C

Now from value to compound, other results behind:

Row | GI50 [1, 17] [nM] | Ki [2] [nM] | GI50 [3] [nM] | Ki [4] [nM] | Ki [5] [nM] | Ki [6] [nM] | GI50 [7] [nM] | Ki [8] [nM] | Ki [9] [nM] | GI50 [10, 18] [nM] | GI50 ([11]; A2780, 72 h, Ovarian) [nM] | GI50 ([12]; D283, 72 h, Medulloblastoma) [nM] | GI50 ([13]; Medulloblastoma) [nM] | Structure (SMILES) | other results
7 | 381 ± 96 | > 5000 |  | 2 | 365 | 1910 |  | 10 | > 5000 | 11 ± 4 | 94 ± 1 | 489 ± 22 | 645 ± 97 | CNc1nc(C)c(-c2nc(Nc3ccc(N4CCN(C)CC4)cn3)ncc2F)s1 [Compound 31, 5-(5-fluoro-2-((5-(4-methylpiperazin-1-yl)pyridin-2-yl)amino)pyrimidin-4-yl)-N,4-dimethylthiazol-2-amine] | 
8 | 638 ± 42 | > 5000 | 5 ± 4 | 2 | 1390 | 4360 | 98 ± 12 | 55 | > 5000 | 73 ± 10 |  |  |  | Cc1nc(N(C)C)sc1-c1nc(Nc2ccc(N3CCN(C)CC3)cn2)ncc1F [Compound 46, 5-(5-fluoro-2-((5-(4-methylpiperazin-1-yl)pyridin-2-yl)amino)pyrimidin-4-yl)-N,N,4-trimethylthiazol-2-amine] | 
9 | 349 ± 36 | > 5000 | 6 ± 1 | 2 | 3340 | > 5000 | 76 ± 8 | 279 | > 5000 | 107 ± 22 |  |  |  | CNc1nc(C)c(-c2nc(Nc3ccc(N4CCC(N(C)C)CC4)cn3)ncc2F)s1 [Compound 47, 5-(2-((5-(4-(dimethylamino)piperidin-1-yl)pyridin-2-yl)amino)-5-fluoropyrimidin-4-yl)-N,4-dimethylthiazol-2-amine] | 
10 | 70 ± 13 |  |  |  | > 5000 |  |  |  | > 5000 | 23 ± 24 | 81 ± 1 | 124 ± 20 | 321 ± 68 | Cc1nc(NC2CCCC2)sc1-c1ccnc(Nc2ccc(N3CCNCC3)cn2)n1 [Compound 60, N-cyclopentyl-4-methyl-5-(2-((5-(piperazin-1-yl)pyridin-2-yl)amino)pyrimidin-4-yl)thiazol-2-amine] | AUC [14, 20]: 6.6 µM·h; Cmax [14, 20]: 500 nM; half-life [14, 20]: 16.4 h; bioavailability [14, 20]: 51%; Cell cycle effect [15]: arrested cells in the G1 phase of the cell-cycle in a dose-dependent manner
